Test results as given in patent US20250346601A1, “HETEROCYCLIC COMPOUNDS FOR THE PREVENTION AND THERAPY OF CIRCADIAN RHYTHM DISORDERS” (UNIVERZITA PALACKEHO V OLOMOUCI, priority 2022, published 2025).

How the values were obtained:
[1] = system: U2OS line transduced with the Bmal 1-Luc reporter; assay: Period of the circadian rhythm in U2OS cells with Bmal1-Luc reporter (luminescence, cosinor analysis); type: cell-based, Human; conditions: U2OS, DMSO control = 1.00
Procedure: Human osteosarcoma U2OS cells were grown in standard DMEM medium with 10% fetal bovine serum. U2OS cells were transduced with lentiviral particles containing a Bmall-Luc fusion reporter and selected under Blasticidin. The cell line was clonally expanded and a single monoclonal cell line was used for further experiments. Cells were cultured in a 384-well plate in growth medium to 90+% confluence. Test compound or vehicle (DMSO) was applied to recording medium with 100 U/ml penicillin, 100 ug/ml streptomycin, 1x GlutaMAX, 10% fetal bovine serum, and 0.1 mM Luciferin-EF. Luminescence was recorded every hour for the next 144 hours. Circadian rhythm analysis was performed using cosinor analysis.
The length of the period was expressed relative to the period of cells affected only by DMSO vehicle (their period is therefore 1.00). […] The overall effect on circadian oscillations unequivocally proves that the compounds of formula I can be also used to temporally modulate the concentration and activity of not only BMAL1, but also other components of the oscillator including the critical components PER2, CRY and CLOCK in time, as these are an essential part of the mechanism generating the rhythmic expression of the luminescent reporter used. The concentration and level of other proteins, whose rhythmic expression is controlled by an oscillator in the brain and peripheral tissues (so-called clock-controlled genes), are also necessarily affected. The influence of the compounds of formula I on the activity of oscillator components and subordinate genes also means influencing the physiological processes of the cell controlled by these genes and proteins. N^6-furfuryladenine was used as a reference compound. […] The ability to shift the phase of the circadian cycle can be seen in FIG. 2.

[2] = system: NIH3T3 line transfected with the Per2-Luc reporter; assay: Period of the circadian rhythm in NIH3T3 fibroblasts with Per2-Luc reporter (luminescence, cosinor analysis); type: cell-based, mouse; conditions: NIH3T3, DMSO control = 1.00
Procedure: NIH3T3 mouse embryonic fibroblasts were grown in standard DMEM with 10% fetal bovine serum. NIH3T3 cells were transfected with 1 μg of Per2-Luc reporter using GeneJuice and selected under hygromycin. The cell line was clonally expanded and a single monoclonal cell line was used for further experiments. Cells were cultured in a 96-well plate in growth medium to 90+% confluence. Test compound or vehicle (DMSO) was applied to recording medium with 100 U/ml penicillin, 100 μg/ml streptomycin, 1x GlutaMAX, 10% fetal calf serum and 0.1 mM Luciferin-EF (Promega Madison, WI, USA). Luminescence was recorded every hour for the next 144 hours. Circadian rhythm analysis was performed using cosinor analysis. Period length was expressed relative to the period of cells affected only by DMSO vehicle (their period length is therefore 1.00).

SMILES | Period length ± standard error of the mean (expressed relative to control) at the indicated concentration ([1]; 20 μM) | Period length ± standard error of the mean (expressed relative to the control) at the indicated concentration ([2]; 50 μM) | Period length ± standard error of the mean (expressed relative to control) at the indicated concentration ([1]; 10 μM) | Period length ± standard error of the mean (expressed relative to the control) at the indicated concentration ([2]; 10 μM) | other results
OCCNc1nc(NCc2ccco2)c2ncn(C3CCCCO3)c2n1 (centres unmarked) [Compound 45, 2-({6-[(furan-2-ylmethyl)amino]-9-(tetrahydro-2H-pyran-2-yl)-9H-purin-2-yl}amino)ethan-1-ol] | 20 μM: 1.04 ± 0.01 | 50 μM: 1.32 ± 0.01 |  |  | 
CN(C)c1nc(NCc2ccco2)c2ncn(C3CCCO3)c2n1 (centres unmarked) [Compound 23] |  | 1.36 ± 0.04 | 10 μM: 1.08 ± 0.01 | 1.07 ± 0.01 | 
CNc1nc(NCc2ccco2)c2ncn(C3CCCCCO3)c2n1 (centres unmarked) [Compound 60] | 1.15 ± 0.01 | 50 μM: 1.42 ± 0.04 |  |  | Period length ± standard error of the mean (expressed relative to control) at the indicated concentration ([1]; 5 μM): 1.04 ± 0
c1coc(CNc2ncnc3c2ncn3C2CCCC2)c1 [Compound 1] |  | 1.54 ± 0.01 | 10 μM: 1.19 ± 0.02 | 1.17 ± 0.01 | 
CN(C)c1nc(NCc2ccco2)c2ncn(C3CCCCO3)c2n1 (centres unmarked) [Compound 34] | 1.25 ± 0.03 | 50 μM: 2.3 ± 0.03 | 1.12 ± 0.01 |  | Period length ± standard error of the mean (expressed relative to control) at the indicated concentration ([1]; 50 μM): 50 μM: 1.73 ± 0.6
CC(C)OCCn1cnc2c(NCc3ccco3)ncnc21 [N-(furan-2-ylmethyl)-9-(2-isopropoxyethyl)-9H-purin-6-amine, reference compound] |  | 50 μM: 0.95 ± 0.02 |  |  | Period length ± standard error of the mean (expressed relative to control) at the indicated concentration ([1]; 50 μM): 50 μM: 1.01 ± 0.01
Clc1nc(NCc2ccco2)c2ncn(C3CCCC3)c2n1 [Compound 6] |  |  |  | 10 μM: 1.27 ± 0.01 | Period length ± standard error of the mean (expressed relative to control) at the indicated concentration ([1]; 5 μM): 5 μM: 1.23 ± 0.03
Cc1ccc(CNc2nc(N(C)C)nc3c2ncn3C2CCCO2)o1 (centres unmarked) [Compound 24] | 1.09 ± 0.01 | 50 μM: 1.24 ± 0.07 | 1.03 ± 0 |  | 
NCCNc1nc(NCc2ccco2)c2ncn(C3CCCC3)c2n1 [Compound 18] |  | 2.19 ± 0.35 |  | 1.19 ± 0 | Period length ± standard error of the mean (expressed relative to control) at the indicated concentration ([1]; 1 μM): 1 μM: 1.16 ± 0.03
CN(C)CCNc1nc(NCc2ccco2)c2ncn(C3CCCC3)c2n1 [Compound 17] |  | 2.17 ± 0.1 | 10 μM: 1.48 ± 0.28 | 1.71 ± 0.04 | 
c1coc(CNc2nc(N3CCOCC3)nc3c2ncn3C2CCCC2)c1 [Compound 20] |  | 1.55 ± 0.03 |  |  | Period length ± standard error of the mean (expressed relative to control) at the indicated concentration ([1]; 1 μM): 1.09 ± 0.01; Period length ± standard error of the mean (expressed relative to control) at the indicated concentration ([1]; 4 μM): 1.67 ± 0.33; Period length ± standard error of the mean (expressed relative to the control) at the indicated concentration ([2]; 0.83 μM): 1.04 ± 0.01
